Values quoted from earlier work, collected in patent US20260216071A1, “NANOPARTICULATE FORMULATION” (NEWIMMUNE II, LLC, priority 2022, published 2026).

Structure (SMILES): CCCCc1nc(Cl)c(CO)n1Cc1ccc(-c2ccccc2-c2nn[nH]n2)cc1 [Losartan, (2-butyl-4-chloro-1-{[2′-(1H-tetrazol-5-yl)biphenyl-4-yl]methyl}-1H-imidazol-5-yl) methanol]
- absorption following oral administration: well absorbed
